# Assay results taken from US20140199420A1, “USES OF TOONA SINENSIS EXTRACT” (National Chung Hsing University, priority 2013, published 2014).
# System: lactic acid bacteria
# Experiment: Lactic acid bacteria count of Taiwanese style sausage during storage
# Settings: second group, 25% sodium lactate; at 4 and 8 weeks storage at 15° C.
# Protocol: The each group of sausages prepared from example 4 was packed in equal with vacuum package and stored at 15° C. for 8 weeks. Taking the amounts of sausages from the each group in 0, 1, 2, 3, 4 and 8 weeks were separately packed into sterile bags with sterile water and homogenized with a stomacher (Lab-Blender 400, England) for 30 second to have dilutions of the each group's sausages at different storage times for further microbiological analyzing.
# The dilutions of the each group's sausage at different storage times were separately poured into a petri dish, added first layer of MRS agar into the each petri dish and then mixed completely. The second layer of MRS agar was poured on the first layer of MRS agar to produce an anaerobic condition then mixed and incubated at 37° C. for 48 hours in an anaerobic jar.
smiles,measurement,value
CC(O)C(=O)[O-].[Na+] (stereo not shown) [sodium lactate],lactic acid bacteria count,7.52 log CFU/g
